Key:
[1] = tested on: HUVEC; assay: HUVEC chemotactic migration; assay type: cell-based, human; conditions: FGFR1-driven
Description: Confluent HUVEC cells are harvested and resuspended in RPMI 1640 (Invitrogen, 32404-014) without FCS, 2 mM glutamine, MEM non-essential amino-acid 1× (Gibco, 11140-035), MEM sodium pyruvate 1× (Gibco, 11360-039) at 0.8 10^6 cells/ml. 250 μl of cell solution is distributed with 4×SSR in the upper chamber of 24-wells BD Biocoat Angiogenesis System for endothelial cell migration (BD Biocoat, 354144) and 750 μl of medium in the lower chamber with FGF2 (R&D, 234-FSE-025), FGF4 (R&D, 235-F4-025) or FGF-19 (in house produced) at 67 ng/ml. Plates are incubated 22 h at 37° C. in a CO2 chamber. Then, plate insert is removed, and placed in a new 24-wells plate (Falcon, 353504) that contains 500 μL of calcein (Molecular probes, C-3100) for 90 min. Then migrated cells are fluorescent and migration is measured by a […] with downstairs reading following 485 nm excitation and 535 nm emission.

[2] = target: T1, FGF1 (Homo sapiens, UniProt P05230); assay: ITC or STD-NMR, FGF1; assay type: binding
T1 construct: FGF1 (amino acids: 16-155); made in house
Description: The extracellular domain (ECD; amino acids: 39-358) of the human FGFR1 gene (P11362) was PCR amplified and cloned into E. coli vector pETTEV (with a N-terminal His-tag followed by a TEV protease cleavage site), using NdeI and BamHI restriction sites. For protein production, the resulting plasmid (pET FGFR1 D1D2D3) was transformed into E. coli BL21(DE3) (Novagene). Cells were grown at 37° C. until the OD600 reached 0.6 and recombinant protein production was induced by adding 1 mM IPTG (isopropyl-b-D-thiogalactopyranoside). After 4 hours induction, cells were harvested and stored at −80° C. until usage. The cell pellet (1 L culture) was thawed and resuspended in 50 ml buffer 1 (20 mM Tris/HCl, pH 7.5, 200 mM NaCl) containing lysozyme (2 mg), and 40 U benzonase (Merck). […] Complex formation was analyzed by size exclusion chromatography and subsequent analysis on SDS-PAGE.
All STD- and 1D-NMR experiments were carried out on a BRUKER three-channel DRX600 and on a BRUKER four-channel DRX800 spectrometer at the standard temperature of 298 K and were referenced to the internal standard 3-Trimethyl-2,2,3,3-tetradeuteropropionate-sodium salt (TSP). […] For protein ligand 1D STD NMR measurements spectra were recorded with 1 mM ligand SSR128129E (100 mM DMSO stock solution) and […] protein with weak 2s RF irradiation on separated protein methyl resonances. […]

[3] = target: FGFR2^∂23-Y328D (Homo sapiens, UniProt P21802, Y328D); assay: ITC, FGFR2 Y328D mutant; assay type: binding; design: FGFR2^∂23 (consisting of domain D2 and 3); made in house
Description: All calorimetric experiments were performed at 30° C. with a VP-ITC titration calorimeter (MicroCal Inc., Northampton, Mass.) as previously described^45. Titrations involved the addition of 10 μL aliquots of 1.25 mM SSR via a rotating stirrer-syringe to the solution cell containing 1.407 mL of the 10-20 μM interacting protein (i.e. FGFR2^∂123, FGFR2^∂23 and its described mutants and subdomains, FGFR3^∂123, FGF1, FGF2 and Follistatin (as negative control) at 4 min intervals. A constant stirring speed of 300 rpm was maintained and data were fitted to the standard noninteracting one site model supplied by MicroCal, with n fixed as 1.0. All measurements were performed in 10 mM HEPES pH7.2, 150 mM NaCl, and proteins were purified as previously described (Pellegrini et al., 2000). Mutagenesis was performed using the ‘site directed mutagenesis kit’ (Stratagene).
We next explored whether SSR bound to amino acid residues that form part of the orthosteric site in D3 or to an alternative allosteric site. Initially, we used the molecular docking algorithms of the software packages MOLEGRO, Autodock and YASARA and available crystallographic data. […] We also analyzed the FTIR spectrum of the aforementioned mutated FGFR2 fragments.

T1 sequence (P05230 16-155, species assumed): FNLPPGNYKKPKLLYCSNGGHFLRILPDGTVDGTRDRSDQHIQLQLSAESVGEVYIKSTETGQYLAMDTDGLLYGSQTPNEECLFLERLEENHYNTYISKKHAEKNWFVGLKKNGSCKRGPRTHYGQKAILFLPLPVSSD
Sequence of FGFR2^∂23-Y328D (P21802 148-366 Y328D limits assumed): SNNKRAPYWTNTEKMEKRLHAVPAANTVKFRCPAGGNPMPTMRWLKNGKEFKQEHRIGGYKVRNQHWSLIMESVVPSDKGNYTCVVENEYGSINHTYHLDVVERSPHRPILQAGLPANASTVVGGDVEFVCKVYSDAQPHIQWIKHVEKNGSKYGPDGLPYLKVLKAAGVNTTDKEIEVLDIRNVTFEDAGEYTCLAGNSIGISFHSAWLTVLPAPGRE

SMILES: COc1c(C)c(C(=O)c2ccc(N)c(C(=O)[O-])c2)n2ccccc12.[Na+] [SSR]
- FGF2-induced HUVEC chemotactic migration [1]: reduction of FGF2-induced HUVEC chemotactic migration
- binding to FGF1 [2]: failed to bind
- binding to FGFR2^∂23-Y328D [3]: failed to bind

Reference: patent US9234025B2, “Extracellular allosteric inhibitor binding domain from a tyrosine kinase receptor” (SANOFI, priority 2009, dated 2016)
